Measurements taken from publication PMC11396129, “Oxindole–benzothiazole hybrids as CDK2 inhibitors and anticancer agents: design, synthesis and biological evaluation” (BMC Chemistry, 2024).

Key:
MDA-MB-468 = assay: NCI 60 panel growth inhibition (SRB), breast cancer; format: cell-based, human; details: MDA-MB-468, 10 μM
Protocol: (§1) Screening of cytotoxic activity against a panel of sixty human tumor cell lines The selected compounds by NCI were evaluated for their anticancer activity in a two- stage process. […] Then, the output from the single dose screen is reported as a mean graph. […] Assay protocol. […] For a typical screening experiment, cells are inoculated into 96 well microtiter plates in 100 µL at plating densities ranging from 5000 to 40,000 cells/well depending on the doubling time of individual cell lines. […] After 24 h, two plates of each cell line are fixed in situ with TCA, to represent a measurement of the cell population for each cell line at the time of drug addition (Tz). The experimental drugs are solubilized in dimethyl sulfoxide at 400-fold the desired final maximum test concentration and stored frozen prior to use. At the time of drug addition, an aliquot of frozen concentrate is thawed and diluted to twice the desired final maximum test concentration with complete medium containing 50 µg/mL gentamicin. Additional four, 10-fold or ½ log serial dilutions are made to provide a total of five drug concentrations plus control. […] For adherent cells, the assay is terminated by the addition of cold TCA. […] The supernatant is discarded, and the plates are washed five times with tap water and air dried. […] Using the seven absorbance measurements [time zero, (Tz), control growth, (C), and test growth in the presence of drug at the five concentration levels (Ti)], the percentage growth is calculated at each of the drug concentrations levels. Percentage growth inhibition is calculated as: [(Ti Tz)/(C–Tz)] x 100 for concentrations for which Ti>/=Tz and [(Ti-Tz)/Tz] x 100 for concentrations for which Ti < Tz. Three dose response parameters are calculated for each experimental agent. […] The drug concentration resulting in total growth inhibition (TGI) is calculated from Ti = Tz. […] Values are calculated for each of these three parameters if the level of activity is reached; however, if the effect is not reached or is exceeded, the value for that parameter is expressed as greater or less than the maximum or minimum concentration tested.

MCF7 = assay: as above; format: cell-based, human; details: MCF7, 10 μM
Protocol: as §1

T-47D = assay: as above; format: cell-based, human; details: 10 μM
Protocol: as §1

BT-549 = assay: as above; format: cell-based, human; details: BT-549, 10 μM
Protocol: as §1

MDA-MB-231/ATCC = assay: as above; format: cell-based, human; details: 10 μM
Protocol: as §1

HS 578T = assay: as above; format: cell-based, human; details: 10 μM
Protocol: as §1

OVCAR-3 = assay: NCI 60 panel growth inhibition (SRB), ovarian cancer; format: cell-based, human; details: OVCAR-3, 10 μM
Protocol: as §1

OVCAR-5 = assay: as above; format: cell-based, human; details: OVCAR-5, 10 μM
Protocol: as §1

IGROV1 = assay: as above; format: cell-based, human; details: IGROV1, 10 μM
Protocol: as §1

OVCAR-4 = assay: as above; format: cell-based, human; details: OVCAR-4, 10 μM
Protocol: as §1

SK-OV-3 = assay: as above; format: cell-based, human; details: SK-OV-3, 10 μM
Protocol: as §1

OVCAR-8 = assay: as above; format: cell-based, human; details: OVCAR-8, 10 μM
Protocol: as §1

NCI/ADR-RES = assay: as above; format: cell-based, human; details: 10 μM
Protocol: as §1

DU-145 = assay: NCI 60 panel growth inhibition (SRB), prostate cancer; format: cell-based, human; details: DU-145, 10 μM
Protocol: as §1

HT29 = assay: NCI 60 panel growth inhibition (SRB), colon cancer; format: cell-based, human; details: HT29, 10 μM
How it was run: (§2)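 Seeding 5000–40,000 cells/well per doubling time; Tz plates TCA-fixed at 24 h. Five concentrations, 10-fold or ½ log steps, from DMSO concentrate at 400× top dose. Dose-response parameters incl. TGI; values beyond range given as > or < tested limits.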

[1] = system: NCI 60 cancer cell line panel; assay: NCI 60 panel growth inhibition (SRB), whole panel; format: cell-based, human; details: mean over NCI 60 panel, 10 μM
Protocol: as §1

MDA-MB-435 = assay: NCI 60 panel growth inhibition (SRB), melanoma; format: cell-based, human; details: MDA-MB-435, 10 μM
How it was run: as §2

SK-MEL-2 = assay: NCI 60 panel growth inhibition (SRB), melanoma; format: cell-based, human; details: SK-MEL-2, 10 μM
How it was run: as §2

RXF 393 = assay: NCI 60 panel growth inhibition (SRB), renal cancer; format: cell-based, human; details: RXF 393, 10 μM
Protocol: as §1

UO-31 = assay: NCI 60 panel growth inhibition (SRB), renal cancer; format: cell-based, human; details: UO-31, 10 μM
Protocol: as §1

ACHN = assay: NCI 60 panel growth inhibition (SRB), renal cancer; format: cell-based, human; details: 10 μM
Protocol: as §1

786-0 = assay: NCI 60 panel growth inhibition (SRB), renal cancer; format: cell-based, human; details: 786-0, 10 μM
Protocol: as §1

SN12C = assay: NCI 60 panel growth inhibition (SRB), renal cancer; format: cell-based, human; details: 10 μM
Protocol: as §1

CAKI-1 = assay: NCI 60 panel growth inhibition (SRB), renal cancer; format: cell-based, human; details: CAKI-1, 10 μM
Protocol: as §1

TK-10 = assay: NCI 60 panel growth inhibition (SRB), renal cancer; format: cell-based, human; details: TK-10, 10 μM
Protocol: as §1

A498 = assay: NCI 60 panel growth inhibition (SRB), renal cancer; format: cell-based, human; details: A498, 10 μM
Protocol: as §1

PC-3 = assay: NCI 60 panel growth inhibition (SRB), prostate cancer; format: cell-based, human; details: PC-3, 10 μM
Protocol: as §1

CDK2 = molecular target: T1, CDK2 (Homo sapiens, UniProt P24941); assay: CDK2 kinase assay (BPS kit, Kinase-Glo Max); format: biochemical; details: mean of two independent experiments ± SD
T1 construct: purchased BPS Biosciences 79599

Compound	GI% (MDA-MB-468)	GI% (MCF7) [%]	GI% (T-47D) [%]	GI% (BT-549)	GI% (MDA-MB-231/ATCC) [%]	GI% (HS 578T)	GI% (OVCAR-3)	GI% (OVCAR-5)	GI% (IGROV1)	GI% (SK-OV-3)	GI% (OVCAR-8)	GI% (NCI/ADR-RES) [%]	GI% (DU-145)	GI% (MDA-MB-435)	GI% (UO-31)	GI% (ACHN) [%]	GI% (786-0) [%]	GI% (SN12C) [%]	GI% (CAKI-1) [%]	GI% (TK-10)	other results
COc1cccc(-c2nc3ccccc3s2)c1OCC(=O)NN=C1C(=O)Nc2ccc(Br)cc21 [Compound 9l, 2-(2-(Benzo[d]thiazol-2-yl)-6-methoxyphenoxy)-N′-(5-bromo-2-oxoindolin-3-ylidene)acetohydrazide]	19.79%	35.92	41.03	– (GI% < 5%)	27.34	– (GI% < 5%)	– (GI% < 5%)	– (GI% < 5%)	11.35%	– (GI% < 5%)	10.38%	19.73	– (GI% < 5%)	5.27%	30.14%	22.74	16.93	16.14	40.19	– (GI% < 5%)	GI% (OVCAR-4): 11.40%; GI% (HT29): 9.08%; Mean GI% [1]: 12.52%; GI% (SK-MEL-2): 9.60%; GI% (RXF 393): 14.21%; GI% (A498): – (GI% < 5%)
O=C(COc1ccccc1-c1nc2ccccc2s1)NN=C1C(=O)Nc2ccc(Br)cc21 [Compound 9f, 2-(2-(Benzo[d]thiazol-2-yl)phenoxy)-N′-(5-bromo-2-oxoindolin-3-ylidene)acetohydrazide]	63.10%	55.39	60.76	86.84%	55.33	75.23%	81.63%	– (GI% < 5%)	42.62%	17.03%	71.28%	49.76	14.27%	14.63%	21.89%	64.71	101.23	67.11	51.85	55.14%	GI% (OVCAR-4): 90.58%; GI% (PC-3): 27.83%; IC50 (CDK2): 0.2 ± 0.035 µM; GI% (HT29): – (GI% < 5%); Mean GI% [1]: 43.78%; GI% (RXF 393): 82.91%; GI% (A498): 12.61%
COc1cccc(-c2nc3ccccc3s2)c1OCC(=O)NN=C1C(=O)Nc2ccc(Cl)cc21 [Compound 9k, 2-(2-(Benzo[d]thiazol-2-yl)-6-methoxyphenoxy)-N′-(5-chloro-2-oxoindolin-3-ylidene)acetohydrazide]	27.13%	35.93	40.62	7.55%	19.83	8.19%	– (GI% < 5%)	8.99%	– (GI% < 5%)	– (GI% < 5%)	12.69%	20.56	– (GI% < 5%)	– (GI% < 5%)	33.24%	26.60	22.12	14.00	39.78	– (GI% < 5%)	GI% (OVCAR-4): 13.16%; GI% (HT29): 14.83%; Mean GI% [1]: 14.92%; GI% (SK-MEL-2): 12.78%; GI% (RXF 393): 37.81%; GI% (A498): – (GI% < 5%)
COc1ccc(-c2nc3ccccc3s2)cc1OCC(=O)NN=C1C(=O)Nc2ccc(C)cc21 [Compound 9n, 2-(5-(Benzo[d]thiazol-2-yl)-2-methoxyphenoxy)-N′-(5-methyl-2-oxoindolin-3-ylidene)acetohydrazide]	– (GI% < 5%)	25.33	13.50	– (GI% < 5%)	12.37	5.72%	– (GI% < 5%)	7.10%	– (GI% < 5%)	– (GI% < 5%)	– (GI% < 5%)	14.31	7.08%	– (GI% < 5%)	– (GI% < 5%)	8.57	44.99	5.76	12.63	– (GI% < 5%)	GI% (PC-3): – (GI% < 5%); GI% (HT29): – (GI% < 5%); GI% (SK-MEL-2): – (GI% < 5%); GI% (A498): – (GI% < 5%)
Cc1ccc2c(c1)C(=NNC(=O)COc1ccccc1-c1nc3ccccc3s1)C(=O)N2 [Compound 9b, 2-(2-(Benzo[d]thiazol-2-yl)phenoxy)-N′-(5-methyl-2-oxoindolin-3-ylidene)acetohydrazide]	90.93%	64.25	48.54	50.79%	63.76	58.35%	79.13%	7.29%	35.91%	15.84%	57.37%	71.87	22.75%	17.86%	27.53%	52.92	57.65	61.93	41.90	93.55%	GI% (OVCAR-4): 99.49%; GI% (PC-3): 22.82%; IC50 (CDK2): 0.7 ± 0.013 µM; Mean GI% [1]: 44.28%; GI% (RXF 393): 134.59%; GI% (A498): 5.48%
